According to article PMC8000041, “New Insights into the Metabolism of the Flavanones Eriocitrin and Hesperidin: A Comparative Human Pharmacokinetic Study” (Antioxidants, 2021):
Read-outs that look alike come from different tables or passages of the source.

Experiments:
[1] = Urinary excretion of flavanone-derived metabolites after single intake of lemon or orange extract (UPLC-ESI-QTOF-MS); assay type: in vivo, human; conditions: for Urinary excretion F1: urine fraction 0-4 h; for Urinary excretion F1 / Urinary excretion Total F / Urinary excretion F2 / Urinary excretion F3 / Urinary excretion F4: mean ± SD; for Urinary excretion Total F: sum of fractions F1-F4 (24 h); for Urinary excretion F2: urine fraction 4-8 h; for Urinary excretion F3: urine fraction 8-10 h; for Urinary excretion F4: urine fraction 10-24 h; for Occurrence Urine LE (number of volunteers in whom the metabolite was detected): after consuming lemon extract; for Occurrence Urine LE (number of volunteers in whom the metabolite was detected) / Occurrence Urine OE (number of volunteers in whom the metabolite was detected): n = 16 volunteers; for Occurrence Urine OE (number of volunteers in whom the metabolite was detected): after consuming orange extract; for Urinary excretion after lemon extract vs. orange extract: ratio lemon / orange extract intake
Source text: Secondary endpoints involved the evaluation of post-prandial changes in several biomarkers dealing with metabolism, inflammation, and oxidative stress after a high-fat-high-sugars meal. The design was a randomized pharmacokinetic, double-blind, crossover, single-dose trial consisted of 2 test-phases. The volunteers were randomly allocated into two groups using a computerized random number list. Each group consumed one of the citrus extracts by following a test-phase that lasted for 1 day for blood sampling and urine collection, a 2-week washout period between each test phase, and crossover before consuming the other extract. The volunteers were instructed to avoid the consumption of flavanone-containing products, from a list provided by the researchers, for 1 week before the study and during the wash-out phase (citrus fruit juices, tomatoes, tomato-based sauces (like ‘ketchup’), peppers, almonds, etc.). […] The 3 capsules provided a total of 1.95 g orange extract, containing 260 mg hesperidin, and 3.1 g lemon extract, containing 260 mg eriocitrin. […] Untreated urine samples were aliquoted and frozen at −80 °C for up to 4 weeks until analyses, avoiding freeze-thaw cycles to avoid metabolites’ deconjugation. Moreover, three measurements of blood pressure and heart rate were taken before each time-point of blood withdrawal. […] A previously validated method for analyzing phenolic metabolites in biological samples, including flavanone-derived metabolites, was used. […] After centrifugation at 14,000× g for 10 min at 4 °C, the supernatant was evaporated in a speed vacuum concentrator. Finally, samples were re-suspended in 100 µL of methanol, filtered through a 0.22 µm cellulose filters before analysis by UPLC- ESI-QTOF-MS. […] A targeted screening strategy was applied to identify metabolites that could be present after consuming the citrus extracts. Twenty-eight possible compounds were browsed in all the samples. The list of compounds included the polyphenols present in the extracts, with particular focus on the flavanone rutinosides hesperidin and eriocitrin, their respective aglycones hesperetin, and eriodictyol, as well as their derived phase-II conjugates (glucuronides, sulfates, sulfoglucuronides, etc.). The exact mass of each proposed compound was extracted using an extraction window of 0.01 m/z. The metabolites hesperetin 7-O-glucuronide, hesperetin 3′-O-glucuronide, hesperetin 3-O-sulfate, naringenin 4′-O-glucuronide, and naringenin 7′-O-glucuronide were quantified with their corresponding standards. […] The parent phenolic compounds were quantified with their corresponding standards. In the case of some relevant conjugated metabolites, which standards were not available (eriodictyol and homoeriodictyol conjugates), their quantification was achieved by using relative response factors (RRFs) as previously described. Briefly, RRFs are useful to check the different responses of metabolites in the mass spectrometer vs. their UV signal. While the ionization response of free vs. conjugated forms is usually very different, their UV signal response is quite similar. To this purpose, we injected in a HPLC-DAD-ESI-Q (MS) the plasma samples (n = 5) with the highest concentrations of those conjugated metabolites. Concentrations were calculated by integrating the area from their corresponding UV peaks and compared with the UV peak area of a known concentration of their corresponding available parent compounds (eriodictyol and homoeriodictyol). The concentrations calculated were used to compare the MS response for each conjugated-aglycone pair.

[2] = Plasma metabolites and pharmacokinetics after single intake of lemon or orange extract (UPLC-ESI-QTOF-MS, non-compartmental analysis); assay type: in vivo, human; conditions: for Occurrence Plasma LE (number of volunteers in whom the metabolite was detected): after consuming lemon extract; for Occurrence Plasma LE (number of volunteers in whom the metabolite was detected) / Occurrence Plasma OE (number of volunteers in whom the metabolite was detected): n = 16 volunteers; for Occurrence Plasma OE (number of volunteers in whom the metabolite was detected): after consuming orange extract; for Tmax / Cmax / AUC(0-t): mean ± SD; for AUC(0-t): read-out: AUC0-t
Source text: Secondary endpoints involved the evaluation of post-prandial changes in several biomarkers dealing with metabolism, inflammation, and oxidative stress after a high-fat-high-sugars meal. The design was a randomized pharmacokinetic, double-blind, crossover, single-dose trial consisted of 2 test-phases. The volunteers were randomly allocated into two groups using a computerized random number list. Each group consumed one of the citrus extracts by following a test-phase that lasted for 1 day for blood sampling and urine collection, a 2-week washout period between each test phase, and crossover before consuming the other extract. The volunteers were instructed to avoid the consumption of flavanone-containing products, from a list provided by the researchers, for 1 week before the study and during the wash-out phase (citrus fruit juices, tomatoes, tomato-based sauces (like ‘ketchup’), peppers, almonds, etc.). […] The 3 capsules provided a total of 1.95 g orange extract, containing 260 mg hesperidin, and 3.1 g lemon extract, containing 260 mg eriocitrin. […] Plasma samples were obtained by centrifugation of peripheral venous blood at 14,000× g for 15 min at 4 °C and immediately frozen at −80 °C. Glucose, total cholesterol, HDL-cholesterol, LDL-cholesterol, triglycerides, insulin, homeostatic model assessment insulin resistance (HOMA-IR), gamma-glutamyl transferase (GGT), and alanine aminotransferase (ALT) were determined as previously reported. […] A previously validated method for analyzing phenolic metabolites in biological samples, including flavanone-derived metabolites, was used. […] After centrifugation at 14,000× g for 10 min at 4 °C, the supernatant was evaporated in a speed vacuum concentrator. Finally, samples were re-suspended in 100 µL of methanol, filtered through a 0.22 µm cellulose filters before analysis by UPLC- ESI-QTOF-MS. A targeted screening strategy was applied to identify metabolites that could be present after consuming the citrus extracts. Twenty-eight possible compounds were browsed in all the samples. The list of compounds included the polyphenols present in the extracts, with particular focus on the flavanone rutinosides hesperidin and eriocitrin, their respective aglycones hesperetin, and eriodictyol, as well as their derived phase-II conjugates (glucuronides, sulfates, sulfoglucuronides, etc.). The exact mass of each proposed compound was extracted using an extraction window of 0.01 m/z. The metabolites hesperetin 7-O-glucuronide, hesperetin 3′-O-glucuronide, hesperetin 3-O-sulfate, naringenin 4′-O-glucuronide, and naringenin 7′-O-glucuronide were quantified with their corresponding standards. […] The parent phenolic compounds were quantified with their corresponding standards. In the case of some relevant conjugated metabolites, which standards were not available (eriodictyol and homoeriodictyol conjugates), their quantification was achieved by using relative response factors (RRFs) as previously described. Briefly, RRFs are useful to check the different responses of metabolites in the mass spectrometer vs. their UV signal. While the ionization response of free vs. conjugated forms is usually very different, their UV signal response is quite similar. To this purpose, we injected in a HPLC-DAD-ESI-Q (MS) the plasma samples (n = 5) with the highest concentrations of those conjugated metabolites. Concentrations were calculated by integrating the area from their corresponding UV peaks and compared with the UV peak area of a known concentration of their corresponding available parent compounds (eriodictyol and homoeriodictyol). The concentrations calculated were used to compare the MS response for each conjugated-aglycone pair. Statistical analyses were carried out using the SPSS Software, version 23.0 (SPSS Inc., Chicago, IL, USA). Data are expressed as mean ± SD. The empirical distribution of data with the normality assumption was tested with the Shapiro-Wilk test. […]

[3] = lemon extract (3.1 g, 260 mg eriocitrin)
[4] = orange extract (1.95 g, 260 mg hesperidin)
[5] = after orange (hesperidin) extract
[6] = human, oral, 1.95 g, after orange (hesperidin) extract
[7] = human, oral, 1.95 g, after orange (hesperidin) extract, read-out: Tmax
[8] = human, oral, 3.1 g, after lemon extract
[9] = human, oral, 3.1 g, after lemon extract, read-out: Tmax

Compound	Urinary excretion F1 [1, 3]	Urinary excretion F2 ([1]; lemon extract)	Urinary excretion F3 ([1]; lemon extract)	Urinary excretion F4 ([1]; lemon extract)	Urinary excretion F1 [1, 4]	Urinary excretion Total F ([1]; orange extract)	Urinary excretion F2 ([1]; orange extract)	Urinary excretion F3 ([1]; orange extract)	Urinary excretion F4 ([1]; orange extract)	Occurrence Urine LE (number of volunteers in whom the metabolite was detected) [1]	Occurrence Urine OE (number of volunteers in whom the metabolite was detected) [1]	Occurrence Plasma LE (number of volunteers in whom the metabolite was detected) [2]	Occurrence Plasma OE (number of volunteers in whom the metabolite was detected) [2]	Tmax [2, 5]	Cmax [2, 6]	AUC(0-t) [2, 6]	Tmax [2, 7]	Cmax [2, 8]	AUC(0-t) [2, 8]	Tmax [2, 9]	further results
O=C1CC(c2ccc(OC3OC(C(=O)O)C(O)C(O)C3O)cc2)Oc2cc(O)cc(O)c21 (stereo not drawn) [M5, Naringenin 4′-O-glucuronide]	0.8 ± 0.5 µg/mg creatinine	1.7 ± 2.7 µg/mg creatinine	1.3 ± 1.5 µg/mg creatinine	0.4 ± 0.3 µg/mg creatinine	0.1 ± 0.1 µg/mg creatinine	1.0 ± 1.5 µg/mg creatinine	0.3 ± 0.5 µg/mg creatinine	0.3 ± 0.4 µg/mg creatinine	0.3 ± 0.5 µg/mg creatinine	16	16	16	14	7.7 ± 2.0 h	7.3 ± 5.9 nM	0.0267 ± 0.0277 µM·h	7.5 h	35.8 ± 25.9 nM	0.129 ± 0.124 µM·h	5.5 h	Urinary excretion Total F ([1]; lemon extract): 4.2 ± 5.0 µg/mg creatinine; Tmax ([2]; after lemon extract): 5.7 ± 2.3 h
COc1ccc(C2CC(=O)c3c(O)cc(OC4OC(C(=O)O)C(O)C(O)C4O)cc3O2)cc1O (stereo not drawn) [M7, Hesperetin 7-O-glucuronide]	1.2 ± 1.4 µg/mg creatinine	4.0 ± 4.7 µg/mg creatinine	2.7 ± 2.5 µg/mg creatinine	0.6 ± 0.6 µg/mg creatinine	0.2 ± 0.6 µg/mg creatinine	5.6 ± 13.2 µg/mg creatinine	2.1 ± 5.7 µg/mg creatinine	2.2 ± 3.6 µg/mg creatinine	1.1 ± 3.3 µg/mg creatinine	16	16	16	16	8.3 ± 1.6 h	49.6 ± 51.7 nM	0.177 ± 0.249 µM·h	8.5 h	169 ± 109 nM	0.703 ± 0.591 µM·h	6.5 h	Urinary excretion Total F ([1]; lemon extract): 8.5 ± 9.2 µg/mg creatinine; Urinary excretion after lemon extract vs. orange extract [1]: around 2 fold; Tmax ([2]; after lemon extract): 6.3 ± 2.0 h
COc1ccc(C2CC(=O)c3c(O)cc(O)cc3O2)cc1OC1OC(C(=O)O)C(O)C(O)C1O (stereo not drawn) [M8, Hesperetin 3′-O-glucuronide]	2.1 ± 2.3 µg/mg creatinine	10.7 ± 11.3 µg/mg creatinine	9.2 ± 7.7 µg/mg creatinine	2.2 ± 2.4 µg/mg creatinine	0.5 ± 1.5 µg/mg creatinine	9.9 ± 18.9 µg/mg creatinine	4.3 ± 11.5 µg/mg creatinine	3.3 ± 4.2 µg/mg creatinine	1.8 ± 1.6 µg/mg creatinine	16	16	16	16	8.4 ± 1.6 h	107 ± 128 nM	0.409 ± 0.643 µM·h	8.5 h	198 ± 104 nM	0.803 ± 0.569 µM·h	6.5 h	Urinary excretion Total F ([1]; lemon extract): 24.2 ± 23.7 µg/mg creatinine; Tmax ([2]; after lemon extract): 6.4 ± 2.0 h
O=C1C[C@@H](c2ccc(O)c(O)c2)Oc2cc(O)cc(O)c21 [M12, Eriodictyol]										14	4	16	0								
COc1ccc(C2CC(=O)c3c(O)cc(O)cc3O2)cc1OS(=O)(=O)O (stereo not drawn) [M14, Hesperetin 3′-O-sulfate]	1.9 ± 2.6 µg/mg creatinine	4.3 ± 4.5 µg/mg creatinine	3.3 ± 3.1 µg/mg creatinine	0.7 ± 0.6 µg/mg creatinine	0.1 ± 0.3 µg/mg creatinine	3.8 ± 7.3 µg/mg creatinine	1.2 ± 3.3 µg/mg creatinine	1.9 ± 3.1 µg/mg creatinine	0.6 ± 0.6 µg/mg creatinine	16	16	16	16	8.4 ± 1.5 h	178 ± 286 nM	0.635 ± 1.17 µM·h	8.5 h	527 ± 358 nM	2.04 ± 1.81 µM·h	6.5 ± 1.9 h	Urinary excretion after lemon extract vs. orange extract [1]: around 2 fold
O=C1C[C@@H](c2ccc(O)cc2)Oc2cc(O)cc(O)c21 [M15, Naringenin]										9	5	6	2								
